The values below come from BindingDB's records for patent US12466809 (Dana-Farber Cancer Institute, 2025).

The structures appear in SMILES notation.

This assay has as its target Cyclin-A2/Cyclin-dependent kinase 2 (Homo sapiens, UniProt P24941). Kind of assay: Biochemical Assay. From the text:
CDK2 and CDK5 IC50 data were attained through the use of Invitrogen™ commercial assays. The method for CDK2 (assay ID: 315, kinase|Z'-LYTE™|CDK2/Cyclin A|Km app) used a 10-point titration. The method for CDK5 (assay ID: 318, kinase|Z'-LYTE™|CDK5/p25|Km app) used a 10-point titration. All the bifunctional compounds showed potent biochemical inhibition on both CDK2/5 enzymes.
What is called IC50 is the point on the concentration scale where inhibition reaches its midpoint. On to `Cc1ncsc1-c1ccc([C@H](C)NC(=O)[C@@H]2C[C@@H](O)CN2C(=O)[C@@H](NC(=O)CCOCCOCCC(=O)NCCS(=O)(=O)N2CCC(Nc3ncc(Br)c(Nc4cccc(F)c4C(N)=O)n3)CC2)C(C)(C)C)cc1` [US12466809, Compound 11], for which the IC50 was determined as 6.8 nM.
Regarding `Cc1ncsc1-c1ccc([C@H](C)NC(=O)[C@@H]2C[C@@H](O)CN2C(=O)[C@@H](NC(=O)CCC(=O)NCCS(=O)(=O)N2CCC(Nc3ncc(Br)c(Nc4cccc(F)c4C(N)=O)n3)CC2)C(C)(C)C)cc1` [US12466809, Compound 12], the IC50 worked out at 5.3 nM.
The compound `NC(=O)c1c(F)cccc1Nc1nc(NC2CCN(S(=O)(=O)CCNC(=O)CCC(=O)NCCCCCNc3cccc4c3C(=O)N(C3CCC(=O)NC3=O)C4=O)CC2)ncc1Br` (stereo unspecified) [US12466809, Compound 13] displayed an IC50 of 3.8 nM.
Then `NC(=O)c1c(F)cccc1Nc1nc(NC2CCN(S(=O)(=O)CCNC(=O)CCCCCCCCC#Cc3cccc4c3CN(C3CCC(=O)NC3=O)C4=O)CC2)ncc1Br` (stereo unspecified) [US12466809, Compound 14], with 57.2 nM; and `NC(=O)c1c(F)cccc1Nc1nc(NC2CCN(S(=O)(=O)CCNC(=O)CCCCCCCCCCc3cccc4c3CN(C3CCC(=O)NC3=O)C4=O)CC2)ncc1Br` (stereo unspecified) [US12466809, Compound 15], with 50 nM; and `O=C(CCCCCCCCC#Cc1cccc2c1CN(C1CCC(=O)NC1=O)C2=O)NCCS(=O)(=O)N1CCC(Nc2ncc(Br)c(Nc3cccc4c3OCO4)n2)CC1` (stereo unspecified) [US12466809, Compound 16], with greater than 370 nM.
